The structures appear in SMILES notation. ≈ marks a conversion by molar mass, not a printed value. Where only a bound is given, the exact number is not on record here.

3 compounds from ChEMBL document CHEMBL1129860, “Studies on penam sulfones III. Synthesis and -lactamase inhibitory activity of sodium (6R)-6-(-hydroxybenzyl)-2-methoxyiminomethyl-2-methylpenam-3-carboxylate 1,1-dioxide and sodium 2-acyl-2-methylpenam-3-carboxylate 1,1-dioxide” (1997) can be followed below.

One assay has as its system Serratia marcescens. Description: In vitro minimal inhibitory concentration of compound against Serratia marcescens 200 L. The format is functional.
Assay [1] relates to Morganella morganii. The experiment in a line: In vitro minimal inhibitory concentration of compound against Morganella morganii 36014. The format is functional.
Assay [2] has as its system Enterobacter cloacae. The experiment in a line: In vitro minimal inhibitory concentration of compound against Enterobacter cloacae 40011. The format is functional.
Assay [3] deals with Klebsiella aerogenes. The experiment in a line: In vitro minimal inhibitory concentration of compound against Enterobacter aerogenes 41003. The format is functional.
In assay [4] the test system is Klebsiella aerogenes. The experiment in a line: In vitro minimal inhibitory concentration of compound against Enterobacter aerogenes 41006. The format is functional.
Assay [5] relates to Escherichia coli. Description: In vitro minimal inhibitory concentration of compound against Escherichia coli TEM 3. The format is functional.
Assay [6] relates to Enterobacter cloacae. Description: In vitro minimal inhibitory concentration of compound against Enterobacter cloacae 40015. The format is functional.
Assay [7] deals with Proteus vulgaris. The experiment in a line: In vitro minimal inhibitory concentration of compound against Proteus vulgaris CT 106. The format is functional.
The subject of assay [8] is Klebsiella pneumoniae. Description: In vitro minimal inhibitory concentration of compound against Klebsiella pneumoniae CTX 1. The format is functional.
Assay [9] relates to Pseudomonas aeruginosa. The experiment in a line: In vitro minimal inhibitory concentration of compound against Pseudomonas aeruginosa 46220 (DR-2). The format is functional.
In assay [10] the test system is Staphylococcus aureus. Description: In vitro minimal inhibitory concentration of compound against Staphylococcus aureus 80K. The format is functional.
Assay [11] relates to Klebsiella aerogenes. The experiment in a line: In vitro minimal inhibitory concentration of compound against Enterobacter aerogenes 41004. The format is functional.
Assay [12] has as its system Escherichia coli. The experiment in a line: In vitro minimal inhibitory concentration of compound against Escherichia coli SHV 5. The format is functional.
For assay [13], the system named is Enterobacter cloacae. Description: In vitro minimal inhibitory concentration of compound against Enterobacter cloacae P99. The format is functional.
The test system of assay [14] is Escherichia coli. The experiment in a line: In vitro minimal inhibitory concentration of compound against Escherichia coli OXA 1. The format is functional.
Assay [15] deals with Staphylococcus aureus. The experiment in a line: In vitro minimal inhibitory concentration of compound against Staphylococcus aureus 54K. The format is functional.
Assay [16] concerns Escherichia coli. Description: In vitro minimal inhibitory concentration of compound against Escherichia coli TEM 7. The format is functional.
Assay [17] has as its system Escherichia coli. The experiment in a line: In vitro minimal inhibitory concentration of compound against Escherichia coli SHV 1. The format is functional.
Assay [18] deals with Escherichia coli. The experiment in a line: In vitro minimal inhibitory concentration of compound against Escherichia coli OXA 3. The format is functional.
In assay [19] the test system is Citrobacter freundii. The experiment in a line: In vitro minimal inhibitory concentration of compound against Citrobacter freundii 44032. The format is functional.
Assay [20] deals with Citrobacter freundii. The experiment in a line: In vitro minimal inhibitory concentration of compound against Citrobacter freundii 2046E. The format is functional.
The test system of assay [21] is Enterobacter cloacae. Description: In vitro minimal inhibitory concentration (MIC) of compound in combination with Ceftazidime (CAZ) showed synergic activity against Enterobacter cloacae S-11. The format is functional.
The subject of assay [22] is Pseudomonas aeruginosa. Description: microbe, parasite or virus in culture.
The subject of assay [23] is Enterobacter cloacae. The experiment in a line: In vitro minimal inhibitory concentration (MIC) of compound in combination with Ceftazidime (CAZ) showed synergic activity against Enterobacter cloacae S-65. The format is functional.
The subject of assay [24] is Morganella morganii. The experiment in a line: In vitro minimal inhibitory concentration (MIC) of compound in combination with Ceftazidime (CAZ) showed synergic activity against Morganella morganii 36014. The format is functional.
Assay [25] concerns Klebsiella aerogenes. Description: In vitro minimal inhibitory concentration (MIC) of compound in combination with Ceftazidime (CAZ) showed synergic activity against Enterobacter aerogenes 41004. The format is functional.
The subject of assay [26] is Pseudomonas aeruginosa. The experiment in a line: microbe, parasite or virus in culture. The source holds these as a separate data set.
In assay [27] the test system is Enterobacter cloacae. The experiment in a line: In vitro minimal inhibitory concentration (MIC) of compound in combination with Ceftazidime (CAZ) showed synergic activity against Enterobacter cloacae E40002. The format is functional.
For assay [28], the system named is Citrobacter freundii. The experiment in a line: In vitro minimal inhibitory concentration (MIC) of compound in combination with Ceftazidime (CAZ) showed synergic activity against Citrobacter freundii 44032. The format is functional.
In assay [29] the test system is Morganella morganii. Description: In vitro minimal inhibitory concentration (MIC) of compound in combination with Ceftazidime (CAZ) showed synergic activity against Morganella morganii 36030. The format is functional.
Assay [30] concerns Escherichia coli. Description: In vitro minimal inhibitory concentration (MIC) of compound in combination with Ceftazidime (CAZ) showed synergic activity against Escherichia coli TEM 7. The format is functional.
Assay [31] concerns Escherichia coli. The experiment in a line: In vitro minimal inhibitory concentration (MIC) of compound in combination with Ceftazidime (CAZ) showed synergic activity against Escherichia coli TEM 3. The format is functional.
Assay [32] deals with Klebsiella pneumoniae. Description: In vitro minimal inhibitory concentration (MIC) of compound in combination with Ceftazidime (CAZ) showed synergic activity against Klebsiella pneumoniae CTX 1. The format is functional.
Assay [33] has as its system Klebsiella aerogenes. Description: In vitro minimal inhibitory concentration (MIC) of compound in combination with Ceftazidime (CAZ) showed synergic activity against Enterobacter aerogenes 41003. The format is functional.
For assay [34], the system named is Pseudomonas aeruginosa. The experiment in a line: In vitro minimal inhibitory concentration (MIC) of compound in combination with Ceftazidime (CAZ) showed synergic activity against Pseudomonas aeruginosa 46220 (DR-2). The format is functional.
For assay [35], the system named is Proteus vulgaris. The experiment in a line: In vitro minimal inhibitory concentration (MIC) of compound in combination with Ceftazidime (CAZ) showed synergic activity against Proteus vulgaris CT 106. The format is functional.
Assay [36] concerns Citrobacter freundii. The experiment in a line: In vitro minimal inhibitory concentration (MIC) of compound in combination with Ceftazidime (CAZ) showed synergic activity against Citrobacter freundii CT 76. The format is functional.
For assay [37], the system named is Klebsiella aerogenes. Description: In vitro minimal inhibitory concentration (MIC) of compound in combination with Ceftazidime (CAZ) showed synergic activity against Enterobacter aerogenes S-97. The format is functional.
Assay [38] concerns Enterobacter cloacae. The experiment in a line: In vitro minimal inhibitory concentration (MIC) of compound in combination with Ceftazidime (CAZ) showed synergic activity against Enterobacter cloacae P99. The format is functional.
Assay [39] concerns Enterobacter cloacae. Description: In vitro minimal inhibitory concentration (MIC) of compound in combination with Ceftazidime (CAZ) showed synergic activity against Enterobacter cloacae 40011. The format is functional.
For assay [40], the system named is Klebsiella aerogenes. The experiment in a line: In vitro minimal inhibitory concentration (MIC) of compound in combination with Ceftazidime (CAZ) showed synergic activity against Enterobacter aerogenes 41006. The format is functional.
Assay [41] deals with Pseudomonas aeruginosa. The experiment in a line: microbe, parasite or virus in culture. This is another data set of the same source.
The test system of assay [42] is Pseudomonas aeruginosa. Description: microbe, parasite or virus in culture. This is another data set of the same source.
Description: In vitro minimal inhibitory concentration (MIC) of compound against Pseudomonas aeruginosa CT-122 in combination with Ceftazidime (CAZ)
[43] abbreviates: Morganella morganii, read-out: MIC.

In the case of `CCN1CCN(C(=O)N[C@@H](C(=O)N[C@@H]2C(=O)N3[C@@H]2SC(C)(C)[C@@H]3C(=O)O)c2ccccc2)C(=O)C1=O` [PIPERACILLIN], the MIC was 200 µg/mL (≈ 386 µM) in the assay with Serratia marcescens; 50 µg/mL (≈ 96.6 µM) with Morganella morganii [1]; 50 µg/mL (≈ 96.6 µM) with Enterobacter cloacae [2]; 12.5 µg/mL (≈ 24.2 µM) against Klebsiella aerogenes [3]; 100 µg/mL (≈ 193 µM) with Klebsiella aerogenes [4]; 200 µg/mL (≈ 386 µM) in the assay with Escherichia coli [5]. Moreover, the MIC was 100 µg/mL (≈ 193 µM) in the assay on Enterobacter cloacae [6]; 200 µg/mL (≈ 386 µM) in the assay on Proteus vulgaris [7]; > 400 µg/mL against Klebsiella pneumoniae [8]; 100 µg/mL (≈ 193 µM) with Pseudomonas aeruginosa [9]; 50 µg/mL (≈ 96.6 µM) against Staphylococcus aureus [10]; 12.5 µg/mL (≈ 24.2 µM) in the assay on Klebsiella aerogenes [11]. Besides, the MIC with Escherichia coli [12] was 200 µg/mL (≈ 386 µM); with Enterobacter cloacae [13], 100 µg/mL (≈ 193 µM); with Escherichia coli [14], 25 µg/mL (≈ 48.3 µM); in the assay on Staphylococcus aureus [15], 200 µg/mL (≈ 386 µM); in the assay on Escherichia coli [16] it was > 400 µg/mL; with Escherichia coli [17], > 400 µg/mL. Besides, the results for the MIC with Escherichia coli [18], in the assay on Citrobacter freundii [19] and in the assay with Citrobacter freundii [20] were 3.13 µg/mL (≈ 6.05 µM), 200 µg/mL (≈ 386 µM) and > 400 µg/mL, respectively.

With `CC(C)(O/N=C(\C(=O)NC1C(=O)N2C(C(=O)[O-])=C(C[n+]3ccccc3)CSC12)c1csc(N)n1)C(=O)O.C[C@]1(Cn2ccnn2)[C@H](C(=O)[O-])N2C(=O)CC2S1(=O)=O.[Na+]` (centres undefined), the MIC is < 0.25 µg/mL in the assay on Enterobacter cloacae [21]; 32 µg/mL in the assay on Pseudomonas aeruginosa [22]; < 0.25 µg/mL in the assay with Enterobacter cloacae [23]; “<=0.2 ug ml-1” in the assay with Morganella morganii [24]; < 0.25 µg/mL with Morganella morganii [24] (setting [43]); 12.5 µg/mL in the assay on Klebsiella aerogenes [25]. Also, the MIC was 16 µg/mL against Pseudomonas aeruginosa [26]; 200 µg/mL in the assay with Enterobacter cloacae [27]; 200 µg/mL in the assay on Citrobacter freundii [28]; < 0.25 µg/mL with Morganella morganii [29]; ≤ 0.2 µg/mL in the assay on Escherichia coli [30]; ≤ 0.2 µg/mL in the assay on Escherichia coli [31]. For the same compound, the MIC in the assay with Klebsiella pneumoniae [32] turned out to be 0.78 µg/mL; with Klebsiella aerogenes [33], 12.5 µg/mL; with Pseudomonas aeruginosa [34], 25 µg/mL; in the assay with Proteus vulgaris [35], 0.39 µg/mL; with Citrobacter freundii [36] it was 50 µg/mL; with Klebsiella aerogenes [37] it was 1 µg/mL. Moreover, the MIC in the assay on Enterobacter cloacae [38] turned out to be 12.5 µg/mL; in the assay with Enterobacter cloacae [39], 3.13 µg/mL; with Klebsiella aerogenes [40], 100 µg/mL.

With `CC(C)(O/N=C(\C(=O)N[C@@H]1C(=O)N2C(C(=O)[O-])=C(C[n+]3ccccc3)CS[C@H]12)c1csc(N)n1)C(=O)O.CC1(C)[C@H](C(=O)[O-])N2C(=O)[C@@H]([C@@H](O)c3ccccc3)[C@H]2S1(=O)=O.[Na+]`, the MIC with Enterobacter cloacae [21] was < 0.25 µg/mL; in the assay with Enterobacter cloacae [23], < 0.25 µg/mL; in the assay on Morganella morganii [24] (setting [43]) it was < 0.25 µg/mL; in the assay with Pseudomonas aeruginosa [41], 16 µg/mL; in the assay on Pseudomonas aeruginosa [42], 32 µg/mL; with Morganella morganii [29], < 0.25 µg/mL. Further, in the assay on Klebsiella aerogenes [37], the MIC worked out at 2 µg/mL.
